Assays:
[1] = studies of male and female patients suffering from sexual dysfunction; format: in vivo, human patients
Description: Accordingly, the instant invention relates to the use of flibanserin, optionally in form of the pharmacologically acceptable acid addition salts thereof for the preparation of a medicament for the treatment of disorders of sexual desire.

[2] = molecular target: T1, 5-HT1A receptor (Homo sapiens, UniProt P08908); conditions: statement in the background, no value; cited from earlier work
T1 sequence (P08908 1-422): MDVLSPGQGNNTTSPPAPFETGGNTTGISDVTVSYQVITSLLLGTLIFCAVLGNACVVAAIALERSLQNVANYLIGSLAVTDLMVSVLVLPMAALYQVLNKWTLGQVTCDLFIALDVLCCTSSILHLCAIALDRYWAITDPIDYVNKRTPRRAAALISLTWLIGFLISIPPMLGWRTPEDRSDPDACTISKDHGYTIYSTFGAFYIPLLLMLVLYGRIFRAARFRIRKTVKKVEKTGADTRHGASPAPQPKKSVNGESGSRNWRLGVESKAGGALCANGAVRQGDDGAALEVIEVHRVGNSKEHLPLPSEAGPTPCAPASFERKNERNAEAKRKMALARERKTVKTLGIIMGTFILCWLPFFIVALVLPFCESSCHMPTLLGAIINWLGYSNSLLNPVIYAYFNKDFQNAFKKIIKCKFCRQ

[3] = system: 5HT2-receptor; conditions: statement in the background, no value; cited from earlier work

O=c1[nH]c2ccccc2n1CCN1CCN(c2cccc(C(F)(F)F)c2)CC1 [Flibanserin, 1-[2-(4-(3-trifluoromethyl-phenyl)piperazin-1-yl)ethyl]-2,3-dihydro-1H-benzimidazol-2-one]
sexual desire enhancing properties [1]: displays sexual desire enhancing properties
affinity for the 5-HT1A receptor [2]: shows affinity
affinity for the 5HT2-receptor [3]: shows affinity
